Results: patent US20240239841A1, “PEPTIDE AND METHOD FOR TREATING PAIN USING THE SAME” (PELL BIO-MED TECHNOLOGY CO., LTD., priority 2019, published 2024)
Non-standard residues stand in square brackets, D forms with d. pGlu = O=C1CC[C@@H](C(=O)O)N1

Assays:
[1] = tested on: ICR mice with CFA-induced arthritis (bilateral mechanical hyperalgesia); experiment: Paw withdrawal threshold (PWT) by von Frey Filament in CFA-induced arthritis mice; conditions: for PWT value of ipsilateral hind paw / PWT value of contralateral paw: 90 min after administration; for time of best antinociceptive effect after administration: peptide 3 mg/kg, morphine 10 mg/kg, PWT determined at 0, 30, 60, 90, 120 min
[2] = tested on: C57BL/6JNarl male mice (acetic acid-induced visceral pain); experiment: Acetic acid-induced writhing (abdominal constriction) assay; type: in vivo, C57BL/6JNarl mice; conditions: oral doses of 1 μg/kg and 10 mg/kg, among 0.1 μg/kg to 10 mg/kg tested; 10 min before 1% acetic acid; FIG. 9
Procedure: (§1) For conducting nociceptive pain and acid-induced chronic widespread pain experiments, C57BL/6JNarl male mice (20 to 25 g) were housed in an environment with temperature control (24±0.5° C.) and 12-hour light-dark cycle (lights on during 08:00-20:00) and allowed free access to standard laboratory food and tap water. Animals were allowed to acclimatize for 20 to 30 min prior to experimental manipulations. Animal care and handling procedures were adopted in accordance with the International Association for the Study of Pain guidelines for those animals used in pain research, and the procedures were approved by the Committee for Ethics in Animal Research.
Acid-induced abdominal constriction assay was performed in accordance with H. O. Collier, L. C. Dinneen, C. A. Johnson, C. Schneider, The abdominal constriction response and its suppression by analgesic drugs in the mouse. Br J Pharmacol Chemother 32, 295-310 (1968). In general, the mice from Preparation Example 3 were placed in a small observation chamber and habituated for 20 min. […] The numbers of abdominal constrictions in 30 min after acid injection were counted and the mean constriction numbers of mice of each group were calculated. […]

[3] = tested on: C57BL/6JNarl male mice (radiant heat tail-flick); experiment: Radiant heat tail-flick test; type: in vivo, C57BL/6JNarl mice; conditions: oral doses of 0.1 μg/kg, 0.3 μg/kg, 0.1 mg/kg, 1 mg/kg, 3 mg/kg and 10 mg/kg, among 0.01 μg/kg to 10 mg/kg tested; latency 10-90 min; FIG. 9
Procedure: as §1
The radiant heat tail-flick test was modified in accordance with F. E. D'Amour, D. L. Smith, A method for determining loss of pain sensation. The Journal of Pharmacology and Experimental Therapeutics 72, 74-79 (1941). The 5 to 12 mice from Preparation Example 3 were placed and acclimatized in the restrainers for 30 min prior to the tail-flick test. […] The latency was recorded every 10 min during the indicated time period (10-90 min) after oral administration with different dosages of the peptide of SEQ ID NO: 1 (0.01 μg/kg, 0.03 μg/kg, 0.1 μg/kg, 0.3 μg/kg, 1 μg/kg, 0.01 mg/kg, 0.1 mg/kg, 1 mg/kg, 3 mg/kg, and 10 mg/kg). Then the latency during 10-90 min was calculated. […]

IL-6 = experiment: Serum IL-6 by ELISA in CFA-induced arthritis mice after long-term oral administration; type: in vivo, ICR mice; conditions: 3 mg/kg oral once a week, 4th to 12th week; serum at 12th week; vs water control; FIG. 2
Procedure: (§2) On the other hand, the mice administered with water were served as the control group, which also comprised 6 mice. The mice in the experimental group and the control group were sacrificed on the 12th week after administration. The serum collection is conducted by cardiac puncture. The Mouse TNF-α Quantikine ELISA Kit (R&D System, MTA00B), Mouse IL-6 Quantikine ELISA Kit (R&D System, M600B) and enzyme-linked immunosorbent assay (ELISA) were used to determine and collect the serum concentration of TNF-α and IL-6 of mice in the experimental group and the control group.

TNF-α = experiment: Serum TNF-α by ELISA in CFA-induced arthritis mice after long-term oral administration; type: in vivo, ICR mice; conditions: 3 mg/kg oral once a week, 4th to 12th week; serum at 12th week; vs water control; FIG. 1
Procedure: as §2

CN1CC[C@]23c4c5ccc(O)c4O[C@H]2[C@@H](O)C=C[C@H]3[C@H]1C5 [morphine, reference compound]
PWT value of ipsilateral hind paw ([1]; morphine 10 mg/kg oral on 4th week, rose from 0.085±0.015 g, FIG. 3): 0.64 ± 0.089 g
PWT value of contralateral paw ([1]; morphine 10 mg/kg oral on 4th week, rose from 0.43±0.033 g, FIG. 4): 1.96 ± 0.488 g
time of best antinociceptive effect after administration ([1]; oral): 90 min

Glp Glu Thr Ala Val Ser Ser His Glu Gln Asp ([pGlu]ETAVSSHEQD-OH; SMILES CC(C)[C@H](NC(=O)[C@H](C)NC(=O)[C@@H](NC(=O)[C@H](CCC(=O)O)NC(=O)[C@@H]1CCC(=O)N1)[C@@H](C)O)C(=O)N[C@@H](CO)C(=O)N[C@@H](CO)C(=O)N[C@@H](Cc1c[nH]cn1)C(=O)N[C@@H](CCC(=O)O)C(=O)N[C@@H](CCC(N)=O)C(=O)N[C@@H](CC(=O)O)C(=O)O) [peptide of SEQ ID NO: 1, synthesized peptide; Glp is pyroglutamic acid]
PWT value of ipsilateral hind paw ([1]; 0.3 μg/kg oral, rose from 0.065 g, FIG. 7): 1 g
PWT value of contralateral paw ([1]; 0.3 μg/kg oral, rose from 0.32 g, FIG. 8): 1 g
PWT value of ipsilateral hind paw ([1]; 1 μg/kg oral, rose from 0.065 g, FIG. 7): 0.6 g
PWT value of contralateral paw ([1]; 1 μg/kg oral, rose from 0.32 g, FIG. 8): 1.4 g
PWT value of ipsilateral hind paw ([1]; 3 μg/kg oral, rose from 0.065 g, FIG. 7): 0.16 g
PWT value of contralateral paw ([1]; 3 μg/kg oral, rose from 0.32 g, FIG. 8): 1 g
PWT value of ipsilateral hind paw ([1]; 1 mg/kg oral once a week, 4th to 12th week, increased from 0.09 g, FIG. 5): 0.5˜1 g
PWT value of contralateral paw ([1]; 1 mg/kg oral once a week, 4th to 12th week, increased from 0.4 g at 3rd week, FIG. 6): 0.6˜ 1.2 g
PWT value of ipsilateral hind paw ([1]; 3 mg/kg oral once a week, 4th to 12th week, increased from 0.09 g of 3rd week, FIG. 5): 0.63˜1 g
PWT value of contralateral paw ([1]; 3 mg/kg oral once a week, 4th to 12th week, increased from 0.4 g, FIG. 6): 0.87˜1.27 g
antinociceptive effects of 1 mg/kg and 3 mg/kg compared (PWT) ([1]; oral, long-term administration once a week, 4th to 12th week): similar
time of best antinociceptive effect after administration ([1]; oral): 90 min
PWT value of ipsilateral hind paw ([1]; peptide 3 mg/kg oral on 4th week, rose from 0.07 g, FIG. 3): 0.9 ± 0.156 g
PWT value of contralateral paw ([1]; peptide 3 mg/kg oral on 4th week, rose from 0.5±0.047 g, FIG. 4): 1.35 ± 0.193 g
antinociceptive effect compared with morphine (PWT) ([1]; peptide 3 mg/kg oral vs morphine 10 mg/kg oral, lower amount required): antinociceptive effect similar to morphine
antinociceptive effect in the acid-induced writhing experiment (antinociceptive activity %) [2]: best antinociceptive effect
antinociceptive effect in the radiant heat tail-flick test (% MPE) [3]: best antinociceptive effect
serum concentration of IL-6 (IL-6): decreased compared to the control group
serum concentration of TNF-α (TNF-α): not detected (ND)
